In series [1] the test system is MV4-11. The series is described as follows: Antitumor activity against human MV4-11 cells xenografted in mouse assessed as inhibition of tumor growth at 5 mg/kg, po dosed for 21 days measured twice every week relative to control. The class given is functional. Particulars: MV4-11, po, 504 h, time 21 day, read-out: TGI.
In series [2] the target is Calcium/calmodulin-dependent protein kinase type II subunit beta (Homo sapiens) (UniProt Q13554). The series is described as follows: Inhibition of wild type human CAMK2B (M1 to Q380 residues) expressed in bacterial expression system assessed as protein activity at 0.5 uM relative to control. Also on record: scale not given: the % may be the effect or the level left.
The nature of series [3]: Selectivity ratio of Antiproliferative activity against human HT-29 cells to Antiproliferative activity against human HT-29 cells in presence of gemcitabine. The series is classed as functional.
The next series has as its system Z-138. As to the kind of experiment: Antiproliferation activity against human Z138 cells assessed as reduction in cell viability incubated for 72 hrs by MTS assay. Particulars: Z-138, 72 h. The series is classed as functional, cell-based. (Formazan colour is commonly taken as a measure of viable cells.)
A short description of series [4]: Half life in ICR mouse at 20 mg/kg, po measured after 0.083 to 48 hrs by LC-MS/MS analysis. The series is classed as ADME, organism-based. Conditions: in vivo, time 0.083-48 hrs.
A short description of series [5]: AUCt in ICR mouse at 20 mg/kg, po measured after 0.083 to 48 hrs by LC-MS/MS analysis. Also on record: route oral, dose 20 mg/kg, time 0.083-48 hrs. Particulars: in vivo. The class given is ADME, organism-based.
For series [6], the target named is T1, Serine/threonine-protein kinase Chk1 (Homo sapiens) (UniProt O14757).
T1 sequence (whole entry): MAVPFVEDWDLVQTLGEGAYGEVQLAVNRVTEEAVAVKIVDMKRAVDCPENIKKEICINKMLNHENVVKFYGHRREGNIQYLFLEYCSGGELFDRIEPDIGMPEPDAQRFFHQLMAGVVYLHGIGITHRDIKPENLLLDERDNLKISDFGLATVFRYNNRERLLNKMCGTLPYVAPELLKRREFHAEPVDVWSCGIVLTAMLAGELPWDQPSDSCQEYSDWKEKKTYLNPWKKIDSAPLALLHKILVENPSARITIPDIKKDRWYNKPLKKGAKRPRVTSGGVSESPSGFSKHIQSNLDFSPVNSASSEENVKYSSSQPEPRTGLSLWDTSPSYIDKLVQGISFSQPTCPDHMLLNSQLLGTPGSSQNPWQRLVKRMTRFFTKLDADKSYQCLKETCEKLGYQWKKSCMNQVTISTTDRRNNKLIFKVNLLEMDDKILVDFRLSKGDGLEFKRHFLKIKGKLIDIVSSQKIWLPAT
The series is described as follows: Inhibition of wild type human CHK1 (M1 to G289 residue) expressed in bacterial expression system assessed as protein activity at 0.5 uM relative to control. Also on record: scale not given: the % may be the effect or the level left.

In series [7] the target is Ribosomal protein S6 kinase alpha-2 (Homo sapiens) (UniProt Q15349). As to the kind of experiment: Inhibition of wild type human RSK3 expressed in bacterial expression system assessed as protein activity at 0.5 uM relative to control. Also on record: scale not given: the % may be the effect or the level left.
For series [8], the system named is MV4-11. The series is described as follows: Antitumor activity against human MV4-11 cells xenografted in mouse assessed as inhibition of tumor growth at 30 mg/kg, po dosed for 21 days measured twice every week relative to control. The series is classed as functional. Conditions: MV4-11, po, 504 h, time 21 day, read-out: TGI. (In general: A xenograft is tissue or cells of one species grown in another, often human tumour cells in immunodeficient mice.)

The test system of series [9] is HT-29. As to the kind of experiment: Antiproliferative activity against human HT-29 cells incubated for 72 hrs in presence of gemcitabine by CCK8 assay. The class given is functional, cell-based.
The test system of the next series is RPMI-8226. The series is described as follows: Antiproliferative activity against human RPMI-8226 cells incubated for 72 hrs in presence of gemcitabine by CCK8 assay. The series is classed as functional, cell-based.
Series [10] has as its target T1, Serine/threonine-protein kinase Chk1 (Homo sapiens). As to the kind of experiment: Inhibition of CHK1 in human MV4-11 cells assessed as increase in phosphorylation at S345 residue incubated for 2 hrs by Western blot analysis. The class given is cell-based.
For series [11] the target is unchanged. The series is described as follows: Inhibition of CHK1 in human HT-29 cells assessed as […] residue at 1.1 uM incubated for 12 hrs by Western blot analysis. The class given is cell-based. For orientation: Immunoblotting shows a protein as a band on a membrane.
Series [12] concerns HT-29. As to the kind of experiment: Antitumor activity against human HT-29 cells xenografted in mouse assessed as reduction in tumor growth by measuring T/C ratio at 30 mg/kg, po dosed 5 days/week for 22 days measured twice every week. The series is classed as functional. Conditions: time 22 day.
In series [13] the test system is Mus musculus. The series is described as follows: Induction of S345 phosphorylation in tumor of mouse xenografted with human HT-29 cells at 30 mg/kg, po dosed 5 days/week for 22 days by Western blot analysis. The series is classed as functional, organism-based. Particulars: time 22.0 day.
Series [14] has as its system Mus musculus. As to the kind of experiment: Downregulation of S296 phosphorylation in tumor of mouse xenografted with human HT-29 cells at 30 mg/kg, po dosed 5 days/week for 22 days cotreated with gemcitabine by Western blot analysis. The series is classed as functional, organism-based. Conditions: time 22.0 day.

Data on one compound can be found in ChEMBL document CHEMBL4828771, “Discovery and Development of a Potent, Selective, and Orally Bioavailable CHK1 Inhibitor Candidate: 5-((4-((3-Amino-3-methylbutyl)amino)-5-(trifluoromethyl)pyrimidin-2-yl)amino)picolinonitrile” (J Med Chem, 2021).

The source made the active and inactive calls. The calls are words filed in the database; no cut-off is given here.

Calcium/calmodulin-dependent protein kinase type II subunit beta (Homo sapiens), sequence (Q13554 whole entry, the tested form may be a part): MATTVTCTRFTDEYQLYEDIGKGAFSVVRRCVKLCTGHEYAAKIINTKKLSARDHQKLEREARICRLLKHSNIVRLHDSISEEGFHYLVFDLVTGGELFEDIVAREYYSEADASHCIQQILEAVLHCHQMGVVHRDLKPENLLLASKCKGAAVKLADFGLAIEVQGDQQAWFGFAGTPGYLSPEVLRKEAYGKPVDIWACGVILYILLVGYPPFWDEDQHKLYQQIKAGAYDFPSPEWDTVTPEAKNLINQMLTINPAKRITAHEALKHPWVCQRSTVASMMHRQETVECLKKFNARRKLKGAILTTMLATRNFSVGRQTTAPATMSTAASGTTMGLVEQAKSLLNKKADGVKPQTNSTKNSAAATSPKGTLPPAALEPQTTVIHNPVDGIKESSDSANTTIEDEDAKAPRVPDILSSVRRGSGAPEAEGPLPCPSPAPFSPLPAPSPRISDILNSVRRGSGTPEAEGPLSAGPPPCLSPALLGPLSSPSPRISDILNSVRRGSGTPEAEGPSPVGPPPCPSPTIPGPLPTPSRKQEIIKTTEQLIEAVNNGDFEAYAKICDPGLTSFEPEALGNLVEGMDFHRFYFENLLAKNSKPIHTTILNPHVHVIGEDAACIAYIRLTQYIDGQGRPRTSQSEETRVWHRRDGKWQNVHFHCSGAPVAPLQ
Ribosomal protein S6 kinase alpha-2 (Homo sapiens), sequence (Q15349 whole entry): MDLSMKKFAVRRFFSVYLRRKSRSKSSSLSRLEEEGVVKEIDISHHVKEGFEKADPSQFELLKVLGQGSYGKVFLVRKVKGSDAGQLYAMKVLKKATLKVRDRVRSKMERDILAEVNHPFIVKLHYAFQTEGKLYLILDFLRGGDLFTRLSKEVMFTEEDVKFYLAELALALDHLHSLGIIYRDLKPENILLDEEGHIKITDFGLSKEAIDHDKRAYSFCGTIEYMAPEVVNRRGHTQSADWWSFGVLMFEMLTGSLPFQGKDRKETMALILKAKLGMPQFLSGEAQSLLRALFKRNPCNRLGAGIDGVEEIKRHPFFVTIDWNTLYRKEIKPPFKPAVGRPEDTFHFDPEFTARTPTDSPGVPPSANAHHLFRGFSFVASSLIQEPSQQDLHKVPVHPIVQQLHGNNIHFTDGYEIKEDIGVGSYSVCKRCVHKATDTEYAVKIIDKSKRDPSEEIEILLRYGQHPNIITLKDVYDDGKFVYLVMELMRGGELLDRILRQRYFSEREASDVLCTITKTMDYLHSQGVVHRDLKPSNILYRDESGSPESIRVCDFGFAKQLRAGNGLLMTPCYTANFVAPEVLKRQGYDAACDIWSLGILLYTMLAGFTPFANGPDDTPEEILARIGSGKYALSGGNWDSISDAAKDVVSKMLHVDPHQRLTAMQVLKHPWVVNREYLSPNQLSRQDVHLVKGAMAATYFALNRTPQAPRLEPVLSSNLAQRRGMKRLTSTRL

By IC50 is commonly meant the concentration needed to halve the response being measured. Usually half-life stands for how long it takes for the measured level to halve. As usually defined, the AUC(0-t) is the area under the concentration-time curve up to a stated or last time point. The term T/C denotes the result in the treated group divided by that in the control group, in per cent. Turning to `CC(C)(N)CCNc1nc(Nc2ccc(C#N)nc2)ncc1C(F)(F)F`, the inhibition in vivo at 5 mg/kg with MV4-11 [1] amounted to 51.6%. Besides, the Activity in series [2] is 18%; in series [6], 4%; in series [7] it was 14%; in [10] it was “Dose-Dependent Effect”. Further, the Ratio in series [3] is recorded as 100. Further, the IC50 in the series on Z-138 turned out to be 3.28 µM. Moreover, the half-life in series [4] was 10.8 h. Also, the AUC(0-t) in [5] was 17700 ng·h/mL. Besides, the inhibition in vivo at 30 mg/kg in the series on MV4-11 [8] came out at 94.9%. The result (with HT-29 [9]; in the series with RPMI-8226; in [11]; in the series with Mus musculus [13]; in the series with Mus musculus [14]) was Active. In the series on HT-29 [12], the T/C is given as 69.05%.
